From ChEMBL document CHEMBL1132890, “Prediction of drug solubility from Monte Carlo simulations” (Bioorg Med Chem Lett, 2000)

Details: buffer

| SMILES | Log S |
| --- | --- |
| O=C(O)Cc1ccccc1Oc1ccc(Cl)cc1Cl [FENCLOFENAC] | -3.85 |
| COC(=O)[C@@H]1C2CC[C@@H](C[C@@H]1OC(=O)c1ccccc1)N2C (single isomer, unassigned) [COCAINE] | -2.25 |
| O=C1Nc2ccc(Cl)cc2C(c2ccccc2Cl)=NC1O (centres undefined) [LORAZEPAM] | -3.6 |
| O=C(O)c1ccccc1 [BENZOIC ACID] | -1.55 |
| c1ccc2[nH]ccc2c1 [INDOLE] | -1.21 |
| c1ccc2c(c1)oc1ccccc12 [DIBENZOFURAN] | -4.6 |
| Cc1ccccc1 [TOLUENE] | -2.21 |
| CCCO [PROPANOL] | 0.62 |
| c1ccc2ncccc2c1 [QUINOLINE] | -1.3 |
| CCO [ALCOHOL] | 1.1 |
| O=[N+]([O-])c1ccccc1 [NITROBENZENE] | -1.8 |
| c1ccc(-c2ccccc2)cc1 [BIPHENYL] | -4.35 |
| O=C(O)c1ccccc1O [SALICYLIC ACID] | -1.82 |
| CCOC(=O)NCCOc1ccc(Oc2ccccc2)cc1 [PHENOXYCARB] | -4.7 |
| NC(=O)c1ccccc1 [BENZAMIDE] | -0.96 |
| CN(C)CCCN1c2ccccc2Sc2ccc(Cl)cc21 [CHLORPROMAZINE] | -5.1 |
| Clc1c(Cl)c(Cl)c(-c2ccccc2)c(Cl)c1Cl | -7.78 |
| COC(C)=O [ACETIC ACID METHYL ESTER] | 0.46 |
| CC/C(=C(/CC)c1ccc(O)cc1)c1ccc(O)cc1 [DIETHYLSTILBESTROL] | -4.07 |
| Oc1cccc(Cl)c1Cl | -1.3 |
| CCCCCC [HEXANE] | -3.84 |
| Nc1ccccc1 [ANILINE] | -0.41 |
| Cc1ccc(O)cc1 [p-CRESOL] | -0.73 |
| O=C1CN(/N=C/c2ccc([N+](=O)[O-])o2)C(=O)N1 [NITROFURANTOIN] | -3.38 |
| C1COCCN1 [MORPHOLINE] | 1.97 |
| C=C(C)C1CC=C(C)C(=O)C1 (centres undefined) [CARVONE] | -2.06 |
| COC1=CC(=O)C[C@@H](C)[C@]12Oc1c(Cl)c(OC)cc(OC)c1C2=O [GRISEOFULVIN] | -4.07 |
| COc1ccccc1 [ANISOLE] | -1.85 |
| CC(=O)CC(c1ccccc1)c1c(O)c2ccccc2oc1=O (centres undefined) [WARFARIN] | -4.26 |
